Measurements taken from patent US20100056516A1 (priority 2006, published 2010).
Read-outs that look alike come from different tables or passages of the source.

Key:
HeLa P4-2 cell line = test system: HeLa P4-2 cell line
Excerpt: The HeLa P4-2 cell line used in the single cycle HIV infectivity Assay B of Example 270 was also used to determine compound cytotoxicity in the absence of viral infection.

HIV integrase = HIV integrase (Human immunodeficiency virus type 1 group M subtype B, UniProt P04585); assay: integrase strand transfer assay (STA); type: biochemical
HXB2 virus = assay: microbe, parasite or virus in culture; type: cell-based, HIV
Procedure, shortened: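 HXB2 virus used to infect HeLa P4-2 cells in a single-cycle format; inhibition of acute infection is measured.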

[1] = target: HIV-1 reverse transcriptase (RNase H) (Human immunodeficiency virus type 1 group M subtype B, UniProt P04585); assay: ASH assay: RNase H mediated RNA cleavage (ECL format, BioVeris M384); type: biochemical
Procedure: Potency of a substance as an RNase H inhibitors can be determined by measuring its ability prevent RNase H catalyzed cleavage of the RNA strand in a RNA/DNA hybrid duplex substrate. RNase H activity is measured using a substrate generated by annealing the oligoribo-nucleotide 5′-rCrCrUrCrUrCrArArArArArCrArGrGrArGrCrArGrArArArGrArCrArArG (SEQ ID NO:1) to the oligodeoxyribonucleotide 5′-Biotin-[…] (SEQ ID NO:2). […] (SEQ ID NO:3). The resulting double-stranded duplex DNA product is quantitated in an ALPHA screen format using [streptavidin- and anti-fluorescein-coated beads (Packard Bioscience) following the manufacturer's guidelines and reading on a Fusion AlphaScreen instrument. Alternatively, the released 5′-Biotinylated DNA is annealed to a complementary oligodeoxyribonucleotide: 5′-ruthenium-[…] (SEQ ID NO:3). The resulting double-stranded duplex DNA product is quantitated in an ECL screen format using Dynabeads M280 coated with streptavidin (BioVeris Corporation) following the manufacturer's guidelines and reading on a BioVeris M384 Analyzer.

[2] = IC50 in the STA assay, integrase strand transfer
[3] = STA (IC50, μM), integrase strand-transfer assay, Example 269
[4] = Human immunodeficiency virus 1, HXB2, HeLaP4-2, read-out: SCIA-B (IC50, μM)
[5] = Human immunodeficiency virus 1, HXB2, HeLaP4-2, read-out: antiviral IC50 (SCIA-B)
[6] = cytotoxicity test B, Alamar Blue, HeLa P4-2 cells, no virus, tested up to 100 micromolar
[7] = integrase strand transfer, read-out: IC50 in the STA assay
[8] = integrase strand-transfer assay, Example 269, read-out: STA (IC50)
[9] = RNase H mediated RNA cleavage assay, Example 269, read-out: ASH (IC50)

Row | SMILES | Cytotoxicity (LD50, μM) (HeLa P4-2 cell line; human) | IC50 (HIV integrase; [2]) | IC50 (HIV integrase; [3]) | IC50 (HXB2 virus; [4]) | IC50 (HXB2 virus; [5]) | IC50 [1] | Cytotoxicity (LD50, μM) (HeLa P4-2 cell line; [6]) | IC50 (HIV integrase; [7]) | IC50 (HIV integrase; [8]) | IC50 [1, 9]
1 | CCOC(=O)c1c(O)c2c(-c3ccccc3)ccnc2n(O)c1=O [Example 4, Ethyl 1,4-dihydroxy-2-oxo-5-phenyl-1,2-dihydro-1,8-naphthylidine-3-carboxylate] | 50 µM | < 50 µM | 0.24 µM | 0.53 µM | < 100 µM | 260 nM |  |  |  | 
2 | O=C(NC1CCN(Cc2ccccc2)CC1)c1c(O)c2cccnc2n(O)c1=O.O=C(O)C(F)(F)F [Example 21, N-(1-Benzylpiperidin-4-yl)-1,4-dihydroxy-2-oxo-1,2-dihydro-1,8-naphthyridine-3-carboxamide, trifluoro-acetic acid salt] |  | < 50 µM | 0.25 µM | 0.47 µM | < 100 µM | 180 nM | >100 µM |  |  | 
3 | CNC(=O)c1c(O)c2cccnc2n(O)c1=O [Example 24, 1,4-Dihydroxy-N-methyl-2-oxo-1,2-dihydro-1,8-naphthyridine-3-carboxamide] | >100 µM | < 50 µM | 0.55 µM | 0.22 µM | < 100 µM | 180 nM |  |  |  | 
4 | O=c1c(-c2ccccn2)c(O)c2cccnc2n1O [Example 27, 1,4-Dihydroxy-3-pyridin-2-yl-1,8-naphthyridin-2(1B)-one] | 6.2 µM | < 50 µM | 0.06 µM | 0.5 µM | < 100 µM | 100 nM |  |  |  | 
5 | O=c1c(-c2cccc(C(F)(F)F)c2)c(O)c2cccnc2n1O [Example 28, 1,4-Dihydroxy-3-[3-(trifluoromethyl)phenyl]-1,8-naphthyridin-2(1H)-one] | >100 µM |  |  | 0.22 µM | < 100 µM |  |  | < 50 µM | 0.26 µM | 120 nM
6 | O=c1c(-c2cccc(Cl)c2)c(O)c2cccnc2n1O [Example 33, 3-(3-Chlorophenyl)-1,4-dihydroxy-1,8-naphthyridin-2(1H)-one] | >100 µM |  |  | 0.66 µM | < 100 µM |  |  | < 50 µM | 0.18 µM | 47 nM
7 | COc1cccc(-c2c(O)c3cccnc3n(O)c2=O)c1 [Example 40, 1,4-Dihydroxy-3-(3-methoxyphenyl)-1,8-naphthyridin-2(1H)-one] | >100 µM |  |  | 0.67 µM | < 100 µM |  |  | < 50 µM | 0.62 µM | 110 nM
8 | O=c1c(-c2ccccc2)c(O)c2cc(F)cnc2n1O [Example 48, 6-Fluoro-1,4-dihydroxy-3-phenyl-1,8-naphthyridin-2(1H)-one] | 31 µM |  |  | 0.14 µM | < 100 µM |  |  | < 50 µM | 0.023 µM | 200 nM
9 | CCOC(=O)c1c(O)c2cc(-c3cccc(CN4CCOCC4)c3)cnc2n(O)c1=O [Example 57, Ethyl 1,4-dihydroxy-6-[3-(morpholin-4-ylmethyl)phenyl]-2-oxo-1,2-dihydro-1,8-naphthyridine-3-carboxylate] | 36 µM |  |  | 0.1 µM | < 100 µM |  |  | < 50 µM | 0.069 µM | 520 nM
10 | CCOC(=O)c1c(O)c2cc(-c3cccc(O)c3)cnc2n(O)c1=O [Example 59, Ethyl 1,4-dihydroxy-6-(3-hydroxyphenyl)-2-oxo-1,2-dihydro-1,8-naphthyridine-3-carboxylate] | 20 µM |  |  | 0.05 µM | < 100 µM |  |  | < 50 µM | 0.022 µM | 150 nM
11 | O=c1c(Cc2ccccc2)c(O)c2cc(Cc3ccccc3)cnc2n1O [Example 66, 3,6-Dibenzyl-l,4-dihydroxy-1,8-naphthyridin-2(1H)-one] | 34 µM |  |  | 0.38 µM | < 100 µM |  |  | < 50 µM | 0.02 µM | 490 nM
12 | CCOC(=O)c1c(O)c2cc(C(=O)N(C)CCc3ccccc3)cnc2n(O)c1=O [Example 81, Ethyl 1,4-dihydroxy-6-{[methyl(2-phenylethyl)amino]carbonyl}-2-oxo-1,2-dihydro-1,8-naphthyridine-3-carboxylate] | >100 µM |  |  | 0.06 µM | < 100 µM |  |  | < 50 µM | 0.027 µM | 270 nM
13 | O=c1cc(Nc2ccc(-c3ccccc3)cc2)c2cccnc2n1O [Example 106, 4-(Biphenyl-4-ylamino)-1-hydroxy-1,8-naphthyridin-2(1H)-one] | 12 µM | < 50 µM | 0.22 µM | 0.43 µM | < 100 µM | 88 nM |  |  |  | 
14 | O=c1cc(NCc2ccc(CN3CCOCC3)cc2)c2cccnc2n1O [Example 111, 1-Hydroxy-4-{[4-(morpholin-4-ylmethyl)benzyl]amino}-1,8-naphthyridin-2(1H)-one] | >100 µM | < 50 µM | 1.8 µM | 0.12 µM | < 100 µM | 46 nM |  |  |  | 
15 | O=c1cc(NCc2cccc(N3CCOCC3)n2)c2cccnc2n1O [Example 115, 1-hydroxy-4-{[(6-morpholin-4-ylpyridin-2-yl)methyl]amino}-1,8-naphthyridin-2(1H)-one] | 8.6 µM | < 50 µM | 1.9 µM | 0.11 µM | < 100 µM | 180 nM |  |  |  | 
16 | COC(=O)c1ccc2c(c1)CCN(c1cc(=O)n(O)c3ncccc13)C2 [Example 121, 4-[6-(methoxycarbonyl)-3,4-dihydroisoquinolin-2(1H)-yl]-1-hydroxy-1,8-naphthyridin-2(1H)-one] | 16 µM | < 50 µM | 0.6 µM | 0.26 µM | < 100 µM | 150 nM |  |  |  | 
17 | O=c1cc(N2CCc3ncccc3C2)c2cccnc2n1O [Example 123, 4-(7,8-dihydro-1,6-naphthyridin-6(5H)-yl)-1-hydroxy-1,8-naphthyridin-2(1H)-one] |  |  |  | 0.42 µM | < 100 µM |  | 8.7 µM | < 50 µM | 2.4 µM | 110 nM
18 | C[C@H](Nc1cc(=O)n(O)c2ncccc12)c1ccccc1 [Example 124, 1-hydroxy-4-{[(1S)-1-phenylethyl]amino}-1,8-naphthyridin-2(1H)-one] | 50 µM | < 50 µM | 0.66 µM | 0.16 µM | < 100 µM | 230 nM |  |  |  | 
19 | O=c1cc(NC2CCc3ccccc32)c2cccnc2n1O (stereo not shown) [Example 134, 4-(2,3-dihydro-1H-inden-1-ylamino)-1-hydroxy-1,8-naphthyridin-2(1H)-one] | 23 µM | < 50 µM | 0.36 µM | 0.034 µM | < 100 µM | 91 nM |  |  |  | 
20 | O=c1cc(NC2CCCc3ccccc32)c2cccnc2n1O (stereo not shown) [Example 135, 1-hydroxy-4-(1,2,3,4-tetrahydronaphthalen-1-ylamino)-1,8-naphthyridin-2(1H)-one] | >100 µM | < 50 µM | 0.19 µM | 0.5 µM | < 100 µM | 61 nM |  |  |  | 
21 | CCOC(=O)c1c(-c2ccc(CCc3ccc(N)cc3)cc2)c2cccnc2n(O)c1=O [Example 264, ethyl 4-{4-[2-(4-aminophenyl)ethyl]phenyl}1-hydroxy-2-oxo-1,2,-dihydro-1,8-naphthyridin-3-carboxylate] |  |  |  |  | < 100 µM |  |  | < 50 µM |  | 
22 | O=c1c2ccccc2c2cccnc2n1O [Example 265, 5-Hydroxybenzo[c]-1,8-naphthyridin-6(5B)-one] |  |  |  |  | < 100 µM |  |  | < 50 µM |  | 
23 | CNC(=O)c1ccc2c(=O)n(O)c3ncccc3c2c1 [Example 266, 5-Hydroxy-N-methyl-6-oxo-5,6-dihydrobenzo[c]-1,8-naphthyridine-9-carboxamide] |  |  |  |  | < 100 µM |  |  | < 50 µM |  | 
24 | O=c1c2ccc(-c3ccccc3)cc2c2cccnc2n1O [Example 267, 5-Hydroxy-9-phenylbenzo[c]-1,8-naphthyridin-6(5.H)-one] |  |  |  |  | < 100 µM |  |  | < 50 µM |  | 
25 | O=c1c2cc(-c3ccccc3)ccc2c2cccnc2n1O [Example 268, 5-Hydroxy-8-phenylbenzo[c]-1,8-naphthyridin-6(5H)-one] |  |  |  |  | < 100 µM |  |  | < 50 µM |  | 
